From patent publication US20220184058A1, “PHARMACEUTICAL COMPOSITION FOR TREATING AORTIC ANEURYSM” (National University Corporation Hamamatsu University School …, priority 2019, published 2022)

Tested on: aortic wall hypoxia-induced rat AAA model
Assay: Aortic wall hypoxia-induced rat AAA model: non-rupture survival / mortality due to rupture
Format: in vivo
Settings: day of operation to Day 28 post operation, versus control group; trend toward improvement in survival rate
Description: The action of Compound 1 and pitavastatin in rat AAA models (Non-Patent Document 3) induced by operation were examined. In the operation, the aortic wall of each model was separated from the surrounding tissues. After a catheter was inserted, the abdominal aorta was ligated together with a catheter with a thread was studied.
In the test, Compound 1 was manufactured according to the method disclosed in Patent Document 1 and mixed, in a proportion of 0.15%, with a normal diet (FR2, manufactured by Funabashi Farm Co., Ltd.), and the Compound 1-mixed diet was used. In regard to pitavastatin, 0.003% of pitavastatin calcium was mixed with a normal diet(FR2, manufactured by Funabashi Farm Co., Ltd.) and the pitavastatin-mixed diet was used.
Sprague-Dawley male rats (300 to 350 g: Japan SLC, Inc.) were used in the experiment. The rats were reared at room temperature of 25° C.±1° C., and allowed to freely take the feed and water.
The model was created according to the method disclosed in Non-Patent Document 3. Specifically, a rat AAA model was created by separating the rat aortic wall from the surrounding tissue, inserting a polyurethane catheter, and then ligating the abdominal aorta together with a plastic catheter with a monofilament thread, and inducing AAA. […]
In each group, up to 28 days post operation, the aneurysm diameter was measured by echo and comparison in survival was made. […]

## O=C(NCCCOc1ccc2[nH]c(=O)ccc2c1)N(C1CC1)[C@@H]1CCCC[C@H]1O [Compound 1, (−)-6-[3-[3-cyclopropyl-3-[(1R,2R)-2-hydroxycyclohexyl]ureido]propoxy]-2(1H)-quinolinone]
  mortality rates due to rupture: lower than that in the control group
